Measured values taken from patent publication US6881732B2, “Neuroprotection and cardioprotection afforded by chelators with high affinity and specificity for cations of first transition series elements” (Chelator LLC, priority 2002, dated 2005).

Columns and labels:
[1] = tested on: Fenton Reactions (iron catalyzed Haber-Weiss pathways); assay: iron-catalyzed free radical generation, superoxide-driven Fenton reaction; type: biochemical; details: chelator as Fe(III) complex
Protocol: Employing published methods, as described in “Quantitative Effects of Iron Chelators on Hydroxyl Radical Production by the Superoxide-Driven Fenton Reaction,” J. B. Smith, J. C. Cusumano, C. F. Babbs, Free Rad. Res. Comms. 1990, Vol. 8, No. 2, 101-106, the ability of Fe(III) complexed to N,N′,N″-tri(dihydroxy-phosphoryl methyl)-1,4,7-triazacyclononane to support Fenton reactions was evaluated.

[2] = tested on: mammalian cell replication; assay: inhibition of mammalian cell replication in vitro; type: cell-based
Protocol: (§1) This in vivo LD50 toxicity dose results in an instantaneous in vivo concentration which is orders of magnitude greater than the dose of this agent which inhibits mammalian cell replication in vitro (0.009 mM/L).

[3] = tested on: rats; assay: rat stroke model, transient occlusion of the middle cerebral artery (TMCAO); type: in vivo; details: for Infarct Volumes: 48 hours after surgery; for Infarct Volumes / Motor Score: 1 Hour / Motor Score: 24 Hours / Motor Score: 48 Hours: mean ± SD
[4] = tested on: HFF (human foreskin fibroblasts); assay: toxicity toward nonproliferating mammalian cells in vitro; type: cell-based; details: 0.3 mM; mature, nonreplicating HFF cultures in maintenance media; five-day period of observation
Source text: This example illustrates the relatively low toxicity of a representative example of the chelators of this invention toward nonproliferating mammalian cells in vitro.

[5] = tested on: unanesthetized rabbit; assay: ventricular overdrive pacing (VOP) induced ischemia in unanesthetized rabbit; type: in vivo; details: for cardioprotection with regard to cardiac performance parameters: 10 min prior to VOP
Protocol: In the in vivo unanesthetized rabbit VOP-induced myocardial ischemia model, intravenous doses of 0.032 mmole/kg and 0.096 mmole/kg of the test compound were cardioprotective with regard to cardiac performance parameters when administered 10 min prior to VOP. […] The test compound had no affect on any cardiac performance parameters in these experiments prior to VOP-induced ischemia.

[6] = tested on: anesthetized rabbit; assay: rabbit myocardial infarction model (30 min LCAO, reperfusion ~24 hours); type: in vivo; details: for cardioprotection (volume of infarcted myocardium vs. controls): administered beginning after 15 minutes of LCAO
Protocol: Cardioprotection by the test compound in ischemia-reperfusion injury was evaluated in a rabbit myocardial infarction model employing 30 minutes of reversible ligature occlusion of the left anterior descending coronary artery (LCAO) followed by reperfusion for ˜24 hours prior to sacrifice.

[7] = tested on: Sprague Dawley rats; assay: subacute toxicity, repeated intravenous doses in rats; type: in vivo, rat
Source text: Ten male Sprague Dawley rats 29 days old and weighing between 73.4 and 87.8 grams at the beginning of the experiment were randomized, employing the block stratificaton method, into two groups consisting of five rats each. On each of days 1, 2, 3, 6, 7, 8, 9, 10, 13 and 14 of the experiment one set of rats received an intravenous dose of N,N′,N″-tri(dihydroxyphosphoryl methyl)-1,4,7-triazacyclononane (Example 1C in U.S. Pat. No. 5,236,695) equal to 0.05 millimoles per kg of initial body weight (experimental group) while the other group received an equivalent volume of normal saline solution. The weights of the animals were recorded three times per week and the animals were sacrificed on the 28th day, major organs removed and weighed and tissues removed for microscopic examination.

[8] = acute in vivo toxicity, single intravenous dose in mice; details: mouse, in vivo, iv
Protocol: (§2) This example illustrates the low in vivo toxicity of a representative example of the chelators of this invention upon administration to mice.
as §1

[9] = tested on: mice; assay: as above; details: 3.0 mM/kg single intravenous dose; sodium salt
Protocol: as §2, §1

[10] = tested on: ex vivo working rat heart; assay: ex vivo working rat heart model of global ischemia
[11] = Set I: three IV doses of 0.032 mmoles/kg at 10 min prior to, 60 min after MCA occlusion and at reperfusion
[12] = Set II: three IV doses of 0.032 mmoles/kg at 60, 120 (reperfusion) and 180 min after MCA occlusion
[13] = Set III: single 0.032 mmoles/kg IV dose after 60 minutes of MCA occlusion
[14] = Set IV: single 0.032 mmoles/kg IV dose after 90 minutes of MCA occlusion

O=C(O)CN(CCN(CC(=O)O)CC(=O)O)CC(=O)O [EDTA, ethylene diamine tetra acetic acid, reference compound]
ability of Fe(III) complexed to the chelator to support Fenton reactions (hydroxyl radical formation) [1]: supported the Fenton reaction yielding hydroxyl radicals

O=P(O)(O)CN1CCN(CP(=O)(O)O)CCN(CP(=O)(O)O)CC1 [N,N′,N″-tris(dihydroxyphosphorylmethyl)-1,4,7-triazacyclononane]
dose which inhibits mammalian cell replication in vitro [2]: 0.009 mM/L | Infarct Volumes [3, 11]: 3.5 ± 3.7 percentage of whole hemispheric tissue | Motor Score: 1 Hour [3, 11]: 7.3 ± 1.3 points | Motor Score: 24 Hours [3, 11]: 5.9 ± 1.1 points | Motor Score: 48 Hours [3, 11]: 5.4 ± 1.9 points | Infarct Volumes [3, 12]: 6.2 ± 7.5 percentage of whole hemispheric tissue | Motor Score: 1 Hour [3, 12]: 6.9 ± 1.1 points | Motor Score: 24 Hours [3, 12]: 3.6 ± 2.9 points | Motor Score: 48 Hours [3, 12]: 3.0 ± 3.0 points | Infarct Volumes [3, 13]: 2.6 ± 2.1 percentage of whole hemispheric tissue | Motor Score: 1 Hour [3, 13]: 6.8 ± 1.0 points | Motor Score: 24 Hours [3, 13]: 4.3 ± 1.0 points | Motor Score: 48 Hours [3, 13]: 2.8 ± 2.1 points | Infarct Volumes [3, 14]: 4.63 ± 9.08 percentage of whole hemispheric tissue | Motor Score: 1 Hour ([3]; Set IV: single 0.032 mmoles/kg IV dose after 90 minutes of MCA occlusion, cell marked '2 hours:'): 7.43 ± 1.27 points | Motor Score: 24 Hours [3, 14]: 4.9 ± 2.04 points | Motor Score: 48 Hours [3, 14]: 3.7 ± 1.98 points | blood pressure, heart rate and temperature values compared with vehicle-treated animals ([3]; all treated groups): similar | reduction in infarct volumes compared to the corresponding control group ([3]; all treated rats): robust | effect on the resting cells [4]: no effect on the resting cells was observed | cardioprotection with regard to cardiac performance parameters ([5]; 0.032 mmole/kg intravenous): cardioprotective | cardioprotection with regard to cardiac performance parameters ([5]; 0.096 mmole/kg intravenous): cardioprotective | cardioprotection ([5]; single IV dose of 0.032 mmole/kg administered up to 60-120 min prior to VOP-induced ischemia): significant cardioprotection | effect on cardiac performance parameters prior to VOP-induced ischemia ([5]; unanesthetized rabbit): no affect | ability of Fe(III) complexed to the chelator to support Fenton reactions (hydroxyl radical formation) [1]: failed to show evidence of hydroxyl ion formation above background | cardioprotection (volume of infarcted myocardium vs. controls) [6]: significant reduction | volume of infarcted myocardium expressed as % of myocardial volume at risk ([6]; administration beginning after 15 minutes of LCAO): 30.6% | infarcted myocardium as a % of volume at risk ([6]; administration initiated 10 minutes prior to the onset of ischemia): 28.1% | effect on pre-ischemia cardiac performance parameters ([6]; rabbit): without affecting | difference in weight or rate of weight gain vs control group ([7]; 0.05 millimoles per kg IV on 10 days within 14 days, injection period and two-week post-injection period): no statistically significant difference | differences in tissues upon microscopic examination vs control group ([7]; 0.05 millimoles per kg IV on 10 days, necropsy on 28th day): no differences | differences in weights of major organs vs control group ([7]; 0.05 millimoles per kg IV on 10 days, sacrifice on 28th day): no differences observed | LD50 at 14 days [8]: > 3000 µmol/kg | mice surviving for over 14 days [9]: Over 50% | effects on cardiac parameters following ischemia ([10]; 2.7 mM in the perfusing medium): no adverse effects | effects on cardiac performance parameters prior to ischemia ([10]; 2.7 mM in the perfusing medium): no effects | cardioprotection with regard to cardiac performance parameters following global ischemia ([10]; added to the perfusing medium, broad concentration range): significantly cardioprotective | concentration of peak efficacy (cardioprotection) ([10]; in the perfusing medium): 0.01 mM

O=C(NCCO[N+](=O)[O-])c1cccnc1 [nicorandil, reference compound]
cardioprotection (volume of infarcted myocardium vs. controls) [6]: failed to provide cardioprotection
